# Measurements: the supplement of paper PMC10949913
# “And” between values parts separate entries of the source, which are not always exact repeats. Equal values may be shown once.
# Experiments:
# Conditions in all cases: 48 h
# NCI-H295R [1] = test: area under concentration-response curve (viability) (AUC (a.u.)); higher = less active
# Summary of the method: (§1)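 Concentration-response curves were fitted to obtain AC50 and area under the curve, keeping inhibitory or non-responding curve classes only. Data came from CellTiter-Glo luminescence, normalised per plate to vehicle and empty-well controls, in three adrenocortical carcinoma cell lines. These were treated in 1,536-well plates with library compounds at 11 concentrations and read after 48 h.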
# CU-ACC1 [2] = test: as above
# Summary of the method: as §1
# CU-ACC2 [3] = test: as above
# Summary of the method: as §1
# NCI-H295R [4] = test: AC50 viability; higher = less potent
# Summary of the method: as §1
# CU-ACC1 [5] = test: AC50 viability; higher = less potent
# Summary of the method: as §1
# CU-ACC2 [6] = test: AC50 viability; higher = less potent
# Summary of the method: as §1
SMILES,area under concentration-response curve (NCI-H295R [1]),area under concentration-response curve (CU-ACC1 [2]),area under concentration-response curve (CU-ACC2 [3]),AC50 viability (NCI-H295R [4]),AC50 viability (CU-ACC1 [5]),AC50 viability (CU-ACC2 [6])
C=CC(=O)Nc1cccc(Sc2nc(Nc3ccc(N4CCN(C)CC4)cc3)ncc2Cl)c1,375,342,388,4.68 µM,4.68 µM,4.17 µM
CC(N[C@H]1CCCC[C@@H]1NC(=O)c1ccc(Cl)cc1)c1cccc2ccccc12 (stereo partly specified),422,432,550,18.6 µM,33.2 µM,23.5 µM
COc1ccc([S+](=O)([O-])N(CCO)c2ccccc2CN(C)C/C=C/c2ccc(Cl)cc2)cc1,425,436,539,20.9 µM,14.8 µM,23.5 µM
C=CC(=O)Nc1ccc2ncnc(Nc3cccc(Br)c3)c2c1,409,360,375,0.372 µM,13.2 µM,14.8 µM
CCOC1=CC=CC=C1N\2C(=O)C3=C(C=CC=C3)\N=C2C(C)N4CCN(CC4)C(=O)COC5=CC=C(Cl)C=C5 (stereo unspecified),448,373,509,5.9 µM,0.934 µM,2.95 µM
O=C(NO)c1cnc(N2C[C@H]3C[C@@H]2CN3c2cc(C(F)(F)F)ccn2)nc1,488,385,538,1.66 µM,7.42 µM,10.5 µM
Cc1ccc(C(=O)Nc2ccc(CN3CCN(C)CC3)c(C(F)(F)F)c2)cc1C#Cc1cnc2cccnn12,487,402,524,7.42 µM,7.42 µM,9.34 µM
C[C@@]12C(=O)OC(=O)[C@]1(C)[C@H]1CC[C@@H]2O1,434,442,431,4.68 µM,7.42 µM,10.5 µM
C1CCC(C(CC2CCCCN2)C2CCCCC2)CC1 (stereo unspecified),414,398,460,9.34 µM,8.33 µM,11.8 µM
CC(C)c1ccc(Cn2ccc3c4c(N)nc(NC5CC5)nc4ccc32)cc1,335,327,399,2.95 µM,7.42 µM,2.95 µM
COc1cccc2c1C(=O)c1c(O)c3c(c(O)c1C2=O)C[C@@](O)(C(=O)CO)C[C@@H]3O[C@H]1C[C@H](N)[C@H](O[C@H]2CCCCO2)[C@H](C)O1,435,230 and 410,168 and 501,20.9 µM,5.25 µM and 9.34 µM,6.61 µM
COc1ccc(N2C(=O)N(c3c(C)cccc3Cl)Cc3cnc(Nc4ccc(C5CCN(C)CC5)cc4OC)nc32)nc1,490,451,511,14.8 µM,18.6 µM,18.6 µM
COc1ccc2c(c[n+](C)c3c4cc5c(cc4ccc23)OCO5)c1OC,402,445,465,20.9 µM,20.9 µM,33.2 µM
C=CC(=O)Nc1cccc(Nc2nc(Nc3ccc(Oc4ccnc(C(=O)NC)c4)cc3)ncc2F)c1,467,464,596,16.6 µM,29.5 µM,23.5 µM
Cc1ccc(-c2ccc3ncc4c(c3n2)n(C2CCN(C(=O)[C@H](C)O)CC2)c(=O)n4C)cn1,394,363,492,0.295 µM,0.263 µM,0.263 µM
CC[S+]([O-])(=O)NC1=CC(=C(OC2=C(F)C=C(F)C=C2)C=C1)\C3=C\N(C)C(=O)C4=C3C=C[NH]4,463,416,493,5.9 µM,10.5 µM,13.2 µM
CC[S+](=O)([O-])c1cccc(-c2cc(C(=O)NC3CCN(C)CC3)c(C)c3[nH]c4ncc(C)cc4c23)c1,545,500,543,20.9 µM,37.2 µM,10.5 µM
CC(C)(Cc1ccc2ccccc2c1)NC[C@@H](O)COc1cccc(Cl)c1C#N,480,460,530,9.34 µM,9.34 µM,7.42 µM
COc1cccc2c1C(=O)c1c(O)c3c(c(O)c1C2=O)C[C@@](O)(C(=O)CO)CC3OC1CC(N2CCOC(OC)C2)C(O)C(C)O1 (stereo partly specified),282,284,302,0.0833 µM,0.0833 µM,0.059 µM
C=CC(=O)Nc1cc2c(Nc3ccc(F)c(Cl)c3)ncnc2cc1C#CC(C)(C)N1CCN(C)CC1,477,307,520,7.42 µM,10.5 µM,7.42 µM
CC/1=C/C[C@]23O[C@@]2(C)CC[C@@H]4[C@H](OC(=O)C4=C)[C@@H]13,435,447,509,18.6 µM,14.8 µM,16.6 µM
CC[C@@]1(O)C(=O)OC/C2=C1/C=C3\N(CC4=C5[C@@H](N)CCC6=C5C(=CC(=C6C)F)N=C34)C2=O,437,388,486,3.72 µM,2.09 µM,2.35 µM
Cc1cc(I)ccc1Nc1c(C(=O)NOCC2CC2)cc(F)c(F)c1F,490,445,554,8.33 µM,16.6 µM,18.6 µM
COc1ccc(-c2cc(C(O)C3CCCCN3)c3ccccc3n2)cc1 (stereo unspecified),455,432,377,7.42 µM,10.5 µM,14.8 µM
CCc1ccc(OCc2ccccc2C(=O)Nc2ccc3nc(C)cc(N)c3c2)cc1,482,342,513,8.33 µM,10.5 µM,6.61 µM
C=C1CC[C@@H]2[C@](C)(CO)[C@H](O)CC[C@@]2(C)[C@@H]1C/C=C1/C(=O)OC[C@H]1O,372,334,388,16.6 µM,11.8 µM,5.9 µM

SMILES,area under concentration-response curve (NCI-H295R [1]),area under concentration-response curve (CU-ACC1 [2]),area under concentration-response curve (CU-ACC2 [3]),AC50 viability (NCI-H295R [4]),AC50 viability (CU-ACC1 [5]),AC50 viability (CU-ACC2 [6])
CCCc1cc(C(=O)N[C@H](Cc2ccc(-c3cccc(OC(F)(F)F)c3)nc2)C(=O)N[C@@H]2CCNC2)sc1C,469,452,447,18.6 µM,13.2 µM,18.6 µM
Cc1nn(Cc2ccccc2Cl)c(C)c1CN(C)CC(O)COc1ccc(Cl)cc1 (stereo unspecified),482,418,507,8.33 µM,8.33 µM,7.42 µM
CC[C@H]1/C=C\C=C/C[C@@H](C)[C@H](O)[C@@](C)(O)C(=O)[C@@H](C)[C@H](O)[C@@H](C)C(=O)[C@@H](C)[C@H](O)[C@@H](C)/C=C/C(=O)O[C@@H]2[C@H](C)[C@H](CC1)O[C@]1(CC[C@H](C)[C@H](C[C@@H](C)O)O1)[C@H]2C,326,193,402,1.32 µM,0.00186 µM,7.42 µM
NC(=O)c1cnc(N[C@@H]2CCCC[C@@H]2N)nc1Nc1cccc(-n2nccn2)c1,519,492,572,20.9 µM,23.5 µM,20.9 µM
NCCCC[C@H](NC(=O)[C@@H](NC(=O)[C@H](Cc1c[nH]c2ccccc12)NC(=O)[C@H](CCCCN)NC(=O)[C@H](CCCCN)NC(=O)[C@H](Cc1c[nH]c2ccccc12)NC(=O)[C@H](Cc1c[nH]c2ccccc12)NC(=O)[C@H](CCCCN)NC(=O)[C@@H](N)CCCCN)C(c1ccccc1)c1ccccc1)C(N)=O,310,301,301,9.34 µM,10.5 µM,3.72 µM
O=C(/C=C/c1ccc(CN(CCO)CCc2c[nH]c3ccccc23)cc1)NO,380,293,345,1.66 µM,0.332 µM,0.59 µM
Nc1cc(C(F)(F)F)c(-c2cc(N3CCOCC3)nc(N3CCOCC3)n2)cn1,449,400,539,2.63 µM,9.34 µM,4.68 µM
c1ccc(CNc2nc(NCc3ccccc3)c3ccccc3n2)cc1,386,366,467,7.42 µM,7.42 µM,9.34 µM
COc1ccc(-c2cc3c(C)nc(N)nc3n([C@H]3CC[C@H](OCCO)CC3)c2=O)cn1,435,425,446,0.235 µM,0.295 µM,0.59 µM
Cn1cc(CNCC2CCN(c3ncc(C(=O)NO)cn3)CC2)c2ccccc21,443,325,347,0.661 µM,0.661 µM,0.417 µM
Cc1nc(NC(=O)N2CCC[C@H]2C(N)=O)sc1-c1ccnc(C(C)(C)C(F)(F)F)c1,421,439,457,18.6 µM,8.33 µM,9.34 µM
CC(C)C[C@H](NC(=O)CNC(=O)c1cc(Cl)ccc1Cl)B(O)O,408,329,373,0.105 µM,0.166 µM,0.209 µM
CNC(=O)c1ccccc1Sc1ccc2c(/C=C/c3ccccn3)n[nH]c2c1,461,368,493,3.72 µM,37.2 µM,16.6 µM
COc1cc(N2CCC(N)CC2)ccc1Nc1ncc(Cl)c(-c2c[nH]c3ccccc23)n1,318,386,357,1.18 µM,9.34 µM,5.9 µM
CC(C)c1cc(CNc2nc(Nc3cc(C4CC4)[nH]n3)cc(N3CCN(C)CC3)n2)on1,411,429,325,5.9 µM,8.33 µM,2.95 µM
COc1cc2c(Oc3ccc(NC(=O)C4(C(=O)Nc5ccc(F)cc5)CC4)cc3F)ccnc2cc1OCCCN1CCOCC1,436,469,549,6.61 µM,10.5 µM,9.34 µM
COc1cc2c(Oc3ccc4[nH]c(C)cc4c3F)ncnc2cc1OCCCN1CCCC1,461,491,566,20.9 µM,20.9 µM,20.9 µM
c1ccc2c(CCNc3ccc(Nc4ccncc4)cc3)c[nH]c2c1,400,363,374,1.86 µM,5.9 µM,10.5 µM
COC(=O)[C@]12CCC(C)(C)C[C@H]1[C@H]3C(=O)\C=C\4[C@@](C)(CC[C@H]5C(C)(C)C(=O)\C(=C/[C@]45C)C#N)[C@]3(C)CC2,412,402,375,13.2 µM,20.9 µM,16.6 µM
C[C@@]12OC(=O)[C@@]1(NC(=O)[C@@H]2CCCl)[C@@H](O)[C@H]\3CCC\C=C3,435,305,437,0.833 µM,0.833 µM,1.05 µM
COC(C)(C)CCn1nc(Nc2c(C)cccc2C)c2cnc(Nc3ccc(OCCN4CCCC4)c(F)c3)nc21,513,506,467,11.8 µM,14.8 µM,14.8 µM
C[C@H](NC(=O)C(=O)Nc1ccccc1C(C)(C)C)C(=O)N[C@@H](CC(=O)O)C(=O)COc1c(F)c(F)cc(F)c1F,203,328,235,1.05 µM,1.66 µM,0.661 µM
COC1=CC2=NC=CC(=C2C=C1)OC3=CN=C(NC(=O)C/4=C(C)/N(CC(C)(C)O)N(C4=O)C5=CC=CC=C5)C=C3,369,354,350,14.8 µM,23.5 µM,18.6 µM
COc1cc2c(cc1O)CCN[C@]21CS[C@@H]2c3c(OC(C)=O)c(C)c4c(c3[C@H](COC1=O)N1[C@@H]2[C@H]2c3c(cc(C)c(OC)c3O)C[C@@H]([C@@H]1O)N2C)OCO4,315,285,344,0.0152 µM,0.00855 µM,0.0152 µM
Cc1cccc(Nc2nc(-c3ccncc3)cs2)c1,531,497,549,14.8 µM,20.9 µM,16.6 µM
